≈ marks a conversion by molar mass, not a printed value. Calls of active or inactive are those of the source. The calls are words filed in the database; no cut-off is given here.
Key:
[1] = test system: Staphylococcus epidermidis; assay: Antibacterial activity against non-ciprofloxacin-susceptible and methicillin-susceptible Staphylococcus epidermidis assessed as percent susceptible isolates by CLSI M100-S18 method; type: functional
[2] = test system: Streptococcus constellatus; assay: Antibacterial activity against Streptococcus constellatus assessed as percent susceptible isolates by CLSI M100-S18 method; type: functional
Neisseria meningitidis = assay: Antibacterial activity against Neisseria meningitidis by CLSI M7-A7 method; type: functional
Streptococcus anginosus = assay: Antibacterial activity against Streptococcus anginosus assessed as percent susceptible isolates by CLSI M100-S18 method; type: functional
[3] = Antibacterial activity against Lancefield Streptococcus sp. 'group G' by CLSI M100-S18 method; type: functional
[4] = test system: Staphylococcus saprophyticus; assay: Antibacterial activity against Staphylococcus saprophyticus assessed as percent susceptible isolates by CLSI M100-S18 method; type: functional
Clostridium perfringens [5] = test system: Clostridium perfringens
Streptococcus pneumoniae = assay: Antibacterial activity against levofloxacin-susceptible Streptococcus pneumoniae by CLSI M100-S18 method; type: functional
Haemophilus influenzae [6] = assay: Antibacterial activity against non-ciprofloxacin-susceptible Haemophilus influenzae assessed as percent susceptible isolates by CLSI M7-A7 method; type: functional
Legionella pneumophila = assay: Antibacterial activity against Legionella pneumophila by CLSI M7-A7 method; type: functional
[7] = test system: Staphylococcus lugdunensis; assay: Antibacterial activity against Staphylococcus lugdunensis assessed as percent susceptible isolates by CLSI M100-S18 method; type: functional
Streptococcus mitis [8] = assay: Antibacterial activity against Streptococcus mitis assessed as percent susceptible isolates by CLSI M100-S18 method; type: functional
Clostridium perfringens [9] = assay: Antibacterial activity against Clostridium perfringens by CLSI M11-A7 method; type: functional
Streptococcus oralis = assay: Antibacterial activity against Streptococcus oralis assessed as percent susceptible isolates by CLSI M100-S18 method; type: functional
Citrobacter koseri = assay: Antibacterial activity against Citrobacter koseri by CLSI M7-A7 method; type: functional
Prevotella sp. = assay: Antibacterial activity against Prevotella sp. assessed as percent susceptible isolates by CLSI M11-A7 method; type: functional
[10] = Antibacterial activity against Lancefield Streptococcus sp. 'group C' by CLSI M100-S18 method; type: functional
Fusobacterium sp. = assay: Antibacterial activity against Fusobacterium sp. assessed as percent susceptible isolates by CLSI M11-A7 method; type: functional
Staphylococcus aureus [11] = assay: Antibacterial activity against non-ciprofloxacin-susceptible and methicillin-susceptible Staphylococcus aureus assessed as percent susceptible isolates by CLSI M100-S18 method; type: functional
Streptococcus salivarius = assay: Antibacterial activity against Streptococcus salivarius assessed as percent susceptible isolates by CLSI M100-S18 method; type: functional
Enterobacter cloacae = assay: Antibacterial activity against Enterobacter cloacae assessed as percent susceptible isolates by CLSI M7-A7 method; type: functional
Serratia marcescens = assay: Antibacterial activity against Serratia marcescens by CLSI M7-A7 method; type: functional
Citrobacter freundii = assay: Antibacterial activity against Citrobacter freundii by CLSI M7-A7 method; type: functional
[12] = test system: Staphylococcus epidermidis
Streptococcus sp. = assay: Antibacterial activity against Lancefield Streptococcus sp. group F by CLSI M100-S18 method; type: functional
Streptococcus equinus = assay: Antibacterial activity against Streptococcus bovis assessed as percent susceptible isolates by CLSI M100-S18 method; type: functional
[13] = test system: Streptococcus intermedius; assay: Antibacterial activity against Streptococcus intermedius assessed as percent susceptible isolates by CLSI M100-S18 method; type: functional
Acinetobacter lwoffii = assay: Antibacterial activity against Acinetobacter lwoffii by CLSI M7-A7 method; type: functional
Cutibacterium acnes = assay: Antibacterial activity against Propionibacterium acnes by CLSI M11-A7 method; type: functional
Listeria monocytogenes = assay: Antibacterial activity against Listeria monocytogenes by CLSI M100-S18 method; type: functional
Staphylococcus hominis = assay: Antibacterial activity against Staphylococcus hominis by CLSI M100-S18 method; type: functional
Streptococcus sanguinis = assay: Antibacterial activity against Streptococcus sanguinis assessed as percent susceptible isolates by CLSI M100-S18 method; type: functional
Haemophilus influenzae [14] = assay: Antibacterial activity against non-ciprofloxacin-susceptible Haemophilus influenzae by CLSI M7-A7 method; type: functional
Proteus vulgaris = assay: Antibacterial activity against Proteus vulgaris by CLSI M7-A7 method; type: functional
[15] = test system: Streptococcus constellatus; assay: Antibacterial activity against Streptococcus constellatus by CLSI M100-S18 method; type: functional
Staphylococcus aureus [16] = assay: Antibacterial activity against non-ciprofloxacin-susceptible and methicillin-susceptible Staphylococcus aureus by CLSI M100-S18 method; type: functional
[17] = Drug concentration in human tears at 0.6% administered topically as single dose measured after 10 mins; type: ADME; settings: topical or ocular, read-out: Drug uptake
Streptococcus mitis [18] = assay: Antibacterial activity against Streptococcus mitis by CLSI M100-S18 method; type: functional

SMILES: N[C@@H]1CCCCN(c2c(F)cc3c(=O)c(C(=O)O)cn(C4CC4)c3c2Cl)C1 [BESIFLOXACIN]
- Activity [1]: inactive
- Activity [2]: 0.06%
- MIC50 (Neisseria meningitidis): 0.008 µg/mL (≈ 0.0203 µM)
- MIC90 (Neisseria meningitidis): 0.015 µg/mL (≈ 0.0381 µM)
- Activity (Streptococcus anginosus): 0.06%
- MIC50 [3]: 0.03 µg/mL (≈ 0.0762 µM)
- MIC90 [3]: 0.06 µg/mL (≈ 0.152 µM)
- Activity [4]: inactive
- Activity (Clostridium perfringens [5]): inactive
- MIC50 (Streptococcus pneumoniae): 0.03 µg/mL (≈ 0.0762 µM)
- MIC90 (Streptococcus pneumoniae): 0.06 µg/mL (≈ 0.152 µM)
- Activity (Haemophilus influenzae [6]): inactive
- MIC50 (Legionella pneumophila): 0.03 µg/mL (≈ 0.0762 µM)
- MIC90 (Legionella pneumophila): 0.03 µg/mL (≈ 0.0762 µM)
- Activity [7]: inactive
- Activity (Streptococcus mitis [8]): 0.06%
- MIC50 (Clostridium perfringens [9]): 0.25 µg/mL (≈ 0.635 µM)
- MIC90 (Clostridium perfringens [9]): 0.25 µg/mL (≈ 0.635 µM)
- Activity (Streptococcus oralis): 0.06%
- MIC50 (Citrobacter koseri): 0.06 µg/mL (≈ 0.152 µM)
- MIC90 (Citrobacter koseri): 0.25 µg/mL (≈ 0.635 µM)
- Activity (Prevotella sp.): inactive
- MIC50 [10]: 0.03 µg/mL (≈ 0.0762 µM)
- MIC90 [10]: 0.06 µg/mL (≈ 0.152 µM)
- Activity (Fusobacterium sp.): inactive
- Activity (Staphylococcus aureus [11]): inactive
- Activity (Streptococcus salivarius): 0.06%
- Activity (Enterobacter cloacae): inactive
- MIC50 (Serratia marcescens): 0.25 µg/mL (≈ 0.635 µM)
- MIC90 (Serratia marcescens): 1 µg/mL (≈ 2.54 µM)
- MIC50 (Citrobacter freundii): 0.25 µg/mL (≈ 0.635 µM)
- MIC90 (Citrobacter freundii): 4 µg/mL (≈ 10.2 µM)
- MIC90 [12]: inactive
- MIC50 (Streptococcus sp.): 0.03 µg/mL (≈ 0.0762 µM)
- MIC90 (Streptococcus sp.): 0.06 µg/mL (≈ 0.152 µM)
- Activity (Streptococcus equinus): 0.06%
- Activity [13]: 0.06%
- MIC50 (Acinetobacter lwoffii): 0.25 µg/mL (≈ 0.635 µM)
- MIC90 (Acinetobacter lwoffii): 16 µg/mL (≈ 40.6 µM)
- MIC50 (Cutibacterium acnes): 0.25 µg/mL (≈ 0.635 µM)
- MIC90 (Cutibacterium acnes): 0.25 µg/mL (≈ 0.635 µM)
- MIC50 (Listeria monocytogenes): 0.12 µg/mL (≈ 0.305 µM)
- MIC90 (Listeria monocytogenes): 0.12 µg/mL (≈ 0.305 µM)
- MIC50 (Staphylococcus hominis): 0.25 µg/mL (≈ 0.635 µM)
- MIC90 (Staphylococcus hominis): 1 µg/mL (≈ 2.54 µM)
- Activity (Streptococcus sanguinis): 0.06%
- MIC50 (Haemophilus influenzae [14]): 2 µg/mL (≈ 5.08 µM)
- MIC90 (Haemophilus influenzae [14]): 2 µg/mL (≈ 5.08 µM)
- MIC50 (Proteus vulgaris): 0.12 µg/mL (≈ 0.305 µM)
- MIC90 (Proteus vulgaris): 0.25 µg/mL (≈ 0.635 µM)
- MIC50 [15]: 0.06 µg/mL (≈ 0.152 µM)
- MIC90 [15]: 0.12 µg/mL (≈ 0.305 µM)
- MIC50 (Staphylococcus aureus [16]): 0.5 µg/mL (≈ 1.27 µM)
- MIC90 (Staphylococcus aureus [16]): 4 µg/mL (≈ 10.2 µM)
- concentration at 10 min [17]: 610 µg/mL
- MIC50 (Streptococcus mitis [18]): 0.06 µg/mL (≈ 0.152 µM)
- MIC90 (Streptococcus mitis [18]): 0.12 µg/mL (≈ 0.305 µM)

From ChEMBL document CHEMBL1649565, “Besifloxacin, a novel fluoroquinolone, has broad-spectrum in vitro activity against aerobic and anaerobic bacteria” (Antimicrob Agents Chemother, 2009)
